Measurements taken from PubChem BioAssay (NCI).
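Five compound concentrations were applied to cells in 96-well plates for 48 hours; endpoints were derived by simple linear interpolation of the resulting dose-response curve. TGI is the concentration that stops growth completely.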 *1 amine or outer side, *2 acyl side, *3 side chain or, on linkers, in order; H or OH if unused. Where a SMILES comes first, the peptide text is derived from it. Bridges are numbered along the chain shown (N, C = ends). Roman numbers before positions name the chains, in order. [ ]: non-standard residue; d: D form. Actinocin(9to1) = Cc1c2oc3c(C)ccc(C(=O)[*:1])c3nc-2c(C(=O)[*:2])c(N)c1=O; NMeV = CN[CH](C(=O)O)C(C)C; Sar = CNCC(=O)O

Assays:
Test in all cases: NCI-60 cell line screen, 48 h
[1] = tested on: MDA-N
[2] = tested on: PC-3 prostate
[3] = tested on: OVCAR-4 ovarian
[4] = tested on: T-47D breast
[5] = tested on: MCF7 breast
[6] = tested on: RPMI-8226 leukemia
[7] = tested on: NCI/ADR-RES ovarian
[8] = tested on: OVCAR-5 ovarian
[9] = tested on: UACC-62 melanoma
[10] = tested on: SK-MEL-28 melanoma

Compound | TGI [1] [µM] | TGI [2] [µM] | TGI [3] [µM] | TGI [4] [µM] | TGI [5] [µM] | TGI [6] [µM] | TGI [7] [µM] | TGI [8] [µM] | TGI [9] [µM] | TGI [10] [µM]
O=C(CCCCCCCCC(=O)N1C(=O)CC(=O)N(c2cccc(Cl)c2)C1=S)N1C(=O)CC(=O)N(c2cccc(Cl)c2)C1=S | > 100 | 91.2 | > 100 | > 100 | > 100 | > 100 | 96.9 | > 100 | 84.3 | –
COc1ccc(-c2c(N)n(-c3cccc(C(=O)O)c3)c(=O)c3cc([N+](=O)[O-])ccc23)cc1 | > 100 | > 100 | > 100 | > 100 | > 100 | > 100 | > 100 | > 100 | > 100 | > 100
COc1ccc(N=N/C(=N/NC(=O)c2ccccc2)c2ccc(N(CCC#N)CCC#N)cc2C)cc1 | 44.4 | > 100 | > 100 | > 100 | > 100 | > 100 | > 100 | > 100 | > 100 | –
Cc1c2oc3c(C)ccc(C(=O)NC4C(=O)NC(C(C)O)C(=O)N5CCCC5C(=O)N(C)CC(=O)N(C)C(C(C)C)C(=O)OC4C)c3nc-2c(C(=O)NC2C(=O)NC(C(C)O)C(=O)N3CCCC3C(=O)N(C)CC(=O)N(C)C(C(C)C)C(=O)OC2C)c(N)c1=O (configuration not stated) (I: TTP[Sar][NMeV] / II: TTP[Sar][NMeV]; ester I:1-I:C, II:1-II:C; linker I:N-II:N via Actinocin(9to1); configuration not given here) | 11.8 | > 100 | > 63.3 | > 100 | 1.06 | 1.55 | > 100 | 44.2 | 0.528 | 2.75
COc1cccc(N(CN2CC=CC2=O)C(C)=O)c1 | > 100 | > 100 | > 100 | > 100 | > 100 | > 100 | > 100 | > 100 | > 100 | > 100
CCc1ccc2[nH]c(O)c(-c3[nH]c4ccccc4c3N=O)c2c1 | 20.5 | 19.8 | 21.8 | 32.8 | 6.05 | > 100 | 48.8 | 58.2 | 23 | 26.7
CC[C@H](C)[C@H]1NC(=O)[C@@H](NC(=O)[C@@H](CC(C)C)N(C)CC2CCCN2C(=O)C(C)=O)[C@@H](C)OC(=O)[C@H](Cc2ccc(OC)cc2)N(C)C(=O)C2CCCN2C(=O)[C@H](CC(C)C)NC(=O)[C@@H](C)C(=O)[C@H](C(C)C)OC(=O)C[C@@H]1O (some centres not stated) | 0.02 | 0.00983 | 0.00687 | 0.012 | 0.00747 | 0.00697 | 0.231 | 0.014 | 0.0182 | 0.0303
COC(=O)n1c(=O)n(-c2ccccc2)c(=O)n1C(=O)OC | > 100 | > 100 | > 100 | > 100 | > 100 | > 100 | > 100 | > 100 | > 100 | > 100
C=CCSC1=N/C(=C\c2ccccc2)C(=O)N1CC=C | > 100 | > 75.8 | > 100 | 98.6 | > 100 | > 62.3 | > 100 | > 100 | > 100 | > 100
CN(NC(=O)CCCl)C1=NCCCCN1 | > 100 | > 100 | > 100 | > 100 | > 100 | > 100 | > 100 | > 100 | > 100 | > 100
CN(C)Cc1cc(O)c(O)c(CN(C)C)c1 | > 100 | > 100 | > 100 | > 100 | > 100 | > 100 | 65.9 | > 100 | > 100 | > 100
O=C1c2c(nc3ccccc3c2-c2ccccc2)CN1Nc1ccccn1 | > 100 | > 100 | > 100 | > 100 | > 100 | > 100 | > 100 | > 100 | > 100 | > 100
CCOC(=O)/C=C(\C(=O)OCC)n1ccc(N)nc1=O | > 100 | > 100 | > 100 | > 100 | > 100 | > 100 | > 100 | > 100 | > 100 | –
O=c1c2cc(I)ccc2nc(Sc2ncccc2[N+](=O)[O-])n1Cc1ccccc1 | > 100 | > 100 | > 100 | > 100 | > 100 | > 100 | > 100 | > 100 | > 100 | > 100
CC(C)(C)C1(COC(=O)c2ccc(N)cc2)COC1 | > 100 | > 100 | > 100 | > 100 | > 100 | > 100 | > 100 | > 100 | > 100 | > 100
CNC(=O)c1cc(NC(=O)N(CCC#N)CCN(C(=O)N[C@@H](Cc2ccccc2)C(=O)N[C@@H](CC(C)C)C(=O)NC)c2ccccc2)ccc1OC | > 100 | > 100 | > 100 | > 85.9 | > 100 | > 88.3 | > 100 | > 100 | > 55.4 | > 61.9
